Results from patent US9969696B2, “Compounds as inhibitor of DNA double-strand break repair, methods and applications thereof” (INDIAN INSTITUTE OF SCIENCE, priority 2012, dated 2018).

Assays:
[1] = Solubility (characterisation data)
DNA end joining (NHEJ) = experiment: NHEJ assay, cell-free extracts prepared from rat testes; assay type: biochemical; conditions: cell-free repair system from rat testes; compatible, noncompatible, blunt ends
Experimental: ATP end-labeled oligomeric DNA substrate (75 bp) containing 4 nt overhangs at 5′ ends (about 2 h at 25° C.). In the case of vehicle control, DMSO is used. […] The reaction products are purified and resolved on about 8% denaturing polyacrylamide gel.
FIG. 2 depicts the NHEJ assay and study of joining efficiency. A. Schematic representation of NHEJ assay and substrates containing DSBs. B. Comparison of the effect of potential Ligase IV inhibitors on DNA end joining. The joined products are indicated. “M” represents [g-32 ? P] ATP end-labeled 50 by ladder. C. Quantification of the joining efficiency. […] “PSLU” is “photostimulated luminescence unit”. […] Products are resolved on 1% agarose gel and visualized. Ethidium bromide is used as a positive control for the intercalation assay.
The reaction products are resolved on 8% denaturing PAGE. “M” represents [γ-^32P]ATP end-labeled 50 by ladder. […] “M” is a 2 log DNA ladder.
A. Western blotting showing presence of Ligase IV/XRCC4 in eluted fractions. W is wash, 1 and 2 are different fractions. […] Concentrations of inhibitors used are indicated. For other details, FIG. 4 legend can be referred. C. […] Radiolabeled oligomeric DNA substrates containing 5′ compatible termini are then added to the reaction along with increasing concentrations of purified Ligase IV/XRCC4 complex (30, 60 and 120 fmol) and products are resolved on a PAGE. F. Bar diagram representing quantification of the complementation experiment performed on 5′-5′ and 5′-3′ noncomplementary ends. In all panels quantification of EJ based on 3 independent experiments is represented as mean±SEM.

Row | Structure (SMILES) | melting point | Solubility in dimethyl formamide (DMF), dimethyl sulfoxide (DMSO) [1] | Solubility in chloroform (CHCl3) [1] | Solubility in ethanol [1] | Inhibition of end joining (EJ) of various types of DSBs (DNA end joining (NHEJ))
1 | Nc1nc(S)nc(O)c1/N=C/c1ccc(Cl)cc1 [Compound 2, (E)-5-(4-chlorobenzylideneamino)-6-amino-2-mercaptopyrimidin-4-ol] | > 300 °C | soluble | Insoluble | Partially soluble | –
2 | Nc1nc(S)nc(O)c1/N=C/c1ccc([N+](=O)[O-])cc1 [Compound 3, (E)-5-(4-nitrobenzylideneamino)-6-amino-2-mercaptopyrimidin-4-ol] | > 320 °C | soluble | Insoluble | Partially soluble | –
3 | Nc1nc(S)nc(O)c1/N=C/c1ccc(O)cc1 [Compound 4, (E)-5-(4-hydroxybenzylideneamino)-6-amino-2-mercaptopyrimidin-4-ol] | > 320 °C | soluble | Insoluble | Partially soluble | –
4 | COc1cc(/C=N/c2c(N)nc(S)nc2O)cc(OC)c1OC [Compound 5, (E)-5-(3,4,5-trimethoxybenzylideneamino)-6-amino-2-mercaptopyrimidin-4-ol] | 315 °C | soluble | Insoluble | Partially soluble | –
5 | Oc1nc(S)nc(/N=C/c2ccc(Cl)cc2)c1/N=C/c1ccc(Cl)cc1 [Compound 6, (5E,6E)-5,6-bis(4-chlorobenzylideneamino)-2-mercaptopyrimidin-4-ol] | 260 to 262 °C | soluble | Insoluble | Partially soluble | –
6 | Cc1ccc(/C=N/c2nc(S)nc(O)c2/N=C/c2ccc(C)cc2)cc1 [Compound 7, (5E,6E)-5,6-bis(4-methylbenzylideneamino)-2-mercaptopyrimidin-4-ol] | 181 to 183 °C | soluble | Insoluble | Partially soluble | –
7 | Oc1nc(S)nc2nc3[nH]c4ccccc4c3nc12 [Compound 8, 2-mercapto-10H-indolo[3,2-g]pteridin-4-ol] | > 320 °C | soluble | Insoluble | Partially soluble | –
8 | O=[N+]([O-])c1ccc(/C=N/c2nc(S)nc(O)c2/N=C/c2ccc([N+](=O)[O-])cc2)cc1 [Compound 9, (5E,6E)-5,6-bis(4-nitrobenzylideneamino)-2-mercaptopyrimidin-4-ol] | – | soluble | Insoluble | Partially soluble | –
9 | COc1ccc(/C=N/c2nc(S)nc(O)c2/N=C/c2ccc(OC)cc2)cc1 [Compound 10, (5E,6E)-5,6-bis(4-methoxybenzylideneamino)-2-mercaptopyrimidin-4-ol] | – | soluble | Insoluble | Partially soluble | –
10 | [Na+].[O-]c1nc(S)nc(/N=C/c2ccccc2)c1/N=C/c1ccccc1 [Compound 15, Sodium 5,6-bis((E)-benzylideneamino)-2-mercaptopyrimidin-4-olate] | – | – | – | – | inhibits end joining (EJ) irrespective of type and configurations of DSB

Second part, led by results:

Row | melting point | Solubility in dimethyl formamide (DMF), dimethyl sulfoxide (DMSO) [1] | Solubility in chloroform (CHCl3) [1] | Solubility in ethanol [1] | Structure (SMILES) | Inhibition of end joining (EJ) of various types of DSBs (DNA end joining (NHEJ))
11 | – | soluble | Insoluble | Partially soluble | COc1cc(/C=N/c2nc(S)nc(O)c2/N=C/c2cc(OC)c(OC)c(OC)c2)cc(OC)c1OC [Compound 11, (5E,6E)-5,6-bis(3,4,5-trimethoxybenzylideneamino)-2-mercaptopyrimidin-4-ol] | –
12 | – | soluble | Insoluble | Partially soluble | Oc1ccc(/C=N/c2nc(S)nc(O)c2/N=C/c2ccc(O)cc2)cc1 [Compound 12, (5E,6E)-5,6-bis(4-hydroxybenzylideneamino)-2-mercaptopyrimidin-4-ol] | –
13 | – | soluble | Insoluble | Partially soluble | Cc1ccc(/C=N/c2c(N)nc(S)nc2O)cc1 [Compound 13, (E)-5-(4-methylbenzylideneamino)-6-amino-2-mercaptopyrimidin-4-ol] | –
14 | – | soluble | Insoluble | Partially soluble | COc1ccc(/C=N/c2c(N)nc(S)nc2O)cc1 [Compound 14, (E)-5-(4-methoxybenzylideneamino)-6-amino-2-mercaptopyrimidin-4-ol] | –
